In patent US8816082B2, “Heterocyclyl-pyridinyl-based biphosphonic acid, pharmaceutically acceptable salt thereof, composition thereof and method of use thereof” (The Royal Institution for the Advancement of …, priority 2010, dated 2014):
Read-outs that look alike come from different tables or passages of the source. Blank lines part the entries; values can stand above or below the molecule they belong to.

Columns and labels:
[1] = target: T1, human farnesyl pyrophosphate synthase (hFPPS) (Homo sapiens, UniProt P14324); test: In vitro enzymatic inhibition assay for hFPPS, initial screening conditions (partly purified enzyme, 5 min pre-incubation); assay type: biochemical
T1 sequence (P14324 1-419): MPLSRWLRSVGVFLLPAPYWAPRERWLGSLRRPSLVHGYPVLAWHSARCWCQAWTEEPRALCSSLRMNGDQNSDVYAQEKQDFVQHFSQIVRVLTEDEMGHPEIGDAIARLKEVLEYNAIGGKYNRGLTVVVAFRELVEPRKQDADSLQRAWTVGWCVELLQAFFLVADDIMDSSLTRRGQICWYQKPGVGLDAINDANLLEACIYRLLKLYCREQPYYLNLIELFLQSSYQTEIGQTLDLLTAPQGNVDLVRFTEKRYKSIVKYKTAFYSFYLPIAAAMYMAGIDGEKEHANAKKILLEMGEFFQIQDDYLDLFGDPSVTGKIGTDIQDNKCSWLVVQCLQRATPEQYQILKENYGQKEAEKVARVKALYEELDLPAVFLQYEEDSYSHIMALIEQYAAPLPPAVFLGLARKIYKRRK

[2] = test system: multiple myeloma JJN3 cells; test: Anti-proliferation assay (MTT), multiple myeloma JJN3 cells; assay type: cell-based; conditions: Homo sapiens
Protocol: (§1) In addition, select compounds were tested in anti-proliferation assays using multiple myeloma JJN3 cells and breast cancer MCF-7 cells. Cells were cultured with either an hFPPS inhibitor (i.e. representative Examples 1 to 42) at increasing concentrations (from 10 nM to 100 μM) or a vehicle control.

hFPPS [3] = target: T2, hFPPS (Homo sapiens, UniProt P14324); test: hFPPS IC50 determination under more optimised conditions (Table 4)
T2 sequence (P14324 1-419): T1 sequence (P14324 1-419)

[4] = test system: breast cancer MCF-7 cells; test: Anti-proliferation assay (MTT), breast cancer MCF-7 cells; assay type: cell-based; conditions: Homo sapiens, MCF7, read-out: % inhibition of breast cancer MCF-7 cell proliferation at 50 μM inhibitor, 24 h, vs vehicle control, averages of four determinations
Protocol: as §1

hFPPS [5] = target: T2, hFPPS; test: hFPPS inhibition, high throughput mode at fixed concentration, more optimized assay (purer hFPPS, 10 min pre-incubation); conditions: read-out: % Inhibition at 1 μM
[6] = test system: NCI-H460 cells (lung large cell carcinoma); test: Cell growth inhibition assay (MTT), NCI-H460 cells; assay type: cell-based; conditions: Homo sapiens, 96 h, 4 days, preliminary data, read-out: EC50 (inhibition of cell proliferation)
[7] = JJN-3, read-out: % inhibition of MM JJN3 cell proliferation at 50 μM inhibitor, 24 h, vs vehicle control, averages of four determinations
[8] = JJN-3, read-out: % inhibition of MM JJN3 cell proliferation at 50 μM inhibitor, 48 h, vs vehicle control, averages of four determinations

- IC50 [1]: 640 nM
- IC50 (hFPPS [3]): 150 nM
SMILES: O=P(O)(O)C(F)(Cc1cncc(-c2ccc3[nH]ncc3c2)c1)P(=O)(O)O [Compound 7]
- inhibition at 50 µM [2, 7]: 28%
- inhibition at 50 µM [2, 8]: 19%
- inhibition at 50 µM [4]: 20%

- inhibition at 1 µM (hFPPS [5]): 45%
SMILES: O=P(O)(O)C(Nc1cc(-c2ccc3[nH]ncc3c2)ccn1)P(=O)(O)O [Compound 14]

- inhibition at 1 µM (hFPPS [5]): 90%
SMILES: O=P(O)(O)C(Nc1cc(-c2ccc(Cl)cc2)ccn1)P(=O)(O)O [Compound 40]

- inhibition at 1 µM (hFPPS [5]): 95%
SMILES: O=P(O)(O)C(Nc1cc(-c2ccc(F)cc2)ccn1)P(=O)(O)O [Compound 42]

The remaining lines, values behind:

SMILES: O=P(O)(O)C(Nc1cccc(-c2ccccc2)n1)P(=O)(O)O [Compound 12]
- inhibition at 1 µM (hFPPS [5]): 35%

SMILES: O=P(O)(O)C(Nc1cc(-c2ccc3ccccc3c2)ccn1)P(=O)(O)O [Compound 26]
- inhibition at 1 µM (hFPPS [5]): 65%

SMILES: O=P(O)(O)C(Nc1ncccc1Br)P(=O)(O)O [Compound 36]
- inhibition at 50 µM [2, 7]: 15%
- inhibition at 50 µM [2, 8]: 26%
- IC50 (hFPPS [3]): 180 nM
- inhibition at 50 µM [4]: 25%

SMILES: O=P(O)(O)C(O)(Cc1cccnc1)P(=O)(O)O [Risedronate, reference compound]
- EC50 [6]: 80000 to 100000 nM
- inhibition at 50 µM [2, 7]: 9%
- inhibition at 50 µM [2, 8]: 17%
- inhibition at 50 µM [4]: 16%
